IC50 data for 32 compounds are collected here from US9023847B2, “Azaheterocyclic compounds” (Merck Patent GmbH, priority 2009, dated 2015).

Some results are limits rather than exact numbers.

One test deals with T1, P70S6K (T412E mutant, Millipore) (Homo sapiens, UniProt P23443, T412E).
T1 construct: purchased Millipore
T1 sequence (P23443 whole entry T412E): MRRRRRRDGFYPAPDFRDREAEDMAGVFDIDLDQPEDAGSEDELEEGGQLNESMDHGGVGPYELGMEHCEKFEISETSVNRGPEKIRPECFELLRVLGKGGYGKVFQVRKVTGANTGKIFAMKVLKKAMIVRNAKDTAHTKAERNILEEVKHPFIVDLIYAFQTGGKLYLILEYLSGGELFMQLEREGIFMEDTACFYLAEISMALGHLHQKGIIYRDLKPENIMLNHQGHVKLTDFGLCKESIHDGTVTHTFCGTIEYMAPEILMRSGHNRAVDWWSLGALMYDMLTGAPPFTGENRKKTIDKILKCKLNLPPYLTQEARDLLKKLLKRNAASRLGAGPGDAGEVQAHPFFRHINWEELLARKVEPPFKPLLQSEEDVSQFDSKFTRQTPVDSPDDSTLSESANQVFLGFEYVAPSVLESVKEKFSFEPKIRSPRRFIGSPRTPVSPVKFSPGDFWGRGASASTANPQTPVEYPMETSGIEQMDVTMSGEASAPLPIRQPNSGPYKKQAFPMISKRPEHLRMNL
As to the kind of experiment: p70S6K enzyme assay. The format is biochemical. Conditions: Table 1; 3 nM P70S6K, 24 μM ATP, 90 min at 25° C.; read-out: p70S6K inhibition (IC50). As for the experimental part:
P70S6K inhibitor compounds are diluted and plated in 96 well plates. A reaction mixture including the following components is then added to the compound plate to initiate the enzyme reaction; P70S6K (3 nM, T412E mutant, Millipore) is mixed with 24 μM ATP in an assay buffer containing 100 mM Hepes (pH 7.5), 5 mM MgCl2, 1 mM DTT, 0.015% Brij and 1 μM of the substrate peptide FITC-AHA-AKRRRLSSLRA-OH (derived from the S6 ribosomal protein sequence, FITC=fluorescein isothiocyanate, AHA=6-aminohexanoic acid). The reaction is incubated for 90 min at 25° C., before the addition of 10 mM EDTA to stop the reaction. The proportion of substrate and product (phosphorylated) peptide is analysed on a Caliper Life Sciences Lab Chip 3000, using a pressure of −1.4 psi, and upstream and downstream voltages of −3000 and −700 respectively. Product peaks are resolved before substrate peaks on the resulting chromatograms.
In the case of `O=C(NCCc1ccc(F)cc1)c1sccc1Nc1ccnc2[nH]ccc12` [Example 150, 3-(1H-Pyrrolo[2,3-b]pyridin-4-ylamino)-thiophene-2-carboxylic acid [2-(4-fluoro-phenyl)-ethyl]-amide], the IC50 (in general, the midpoint of a concentration-inhibition curve) was less than 0.1 µM.
Take `O=C(NCCc1cccc(Cl)c1)c1sccc1Nc1ncnc2[nH]ccc12` [Example 144, 3-(7H-Pyrrolo[2,3-d]pyrimidin-4-ylamino)-thiophene-2-carboxylic acid [2-(3-chloro-phenyl)-ethyl]-amide]: the IC50 is less than 0.1 µM.
Turning to `Cc1ccccc1CCNC(=O)c1sccc1Nc1ncnc2[nH]ccc12` [Example 147, 3-(7H-Pyrrolo[2,3-d]pyrimidin-4-ylamino)-thiophene-2-carboxylic acid [2-o-tolyl-ethyl)-amide], the IC50 was less than 0.1 µM.

Staying with this test, now noted: class symbol; 3 nM P70S6K, 24 μM ATP; read-out: IC50 (p70S6K).
Take `Cc1ccc(CNCCNC(=O)c2sccc2Nc2ccnc3[nH]ccc23)cc1` [Example 136, 3-(1H-Pyrrolo[2,3-b]pyridin-4-ylamino)-thiophene-2-carboxylic acid [2-(4-methyl-benzylamino)-ethyl]-amide]: the IC50 was less than 0.1 µM.
In the case of `CCOC(=O)CCNC(=O)c1sccc1Nc1ccnc2[nH]ccc12` [Example 33, 3-{[3-(1H-Pyrrolo[2,3-b]pyridin-4-ylamino)-thiophene-2-carbonyl]-amino}-propionic acid ethyl ester], the IC50 lay within 0.1 to 1 µM.
With `O=C(N[C@@H](CO)Cc1ccccc1)c1ccsc1Nc1ccnc2[nH]ccc12` [Example 119, 2-(1H-Pyrrolo[2,3-b]pyridin-4-ylamino)-thiophene-3-carboxylic acid ((R)-1-hydroxymethyl-2-phenyl-ethyl)-amide], the IC50 lay within 0.1 to 1 µM.
As to `N#CC[C@@H](NC(=O)c1ccsc1Nc1ccnc2[nH]ccc12)c1ccccc1` [Example 139, 2-(1H-Pyrrolo[2,3-b]pyridin-4-ylamino)-thiophene-3-carboxylic acid ((R)-2-cyano-1-phenyl-ethyl)-amide], the IC50 was less than 0.1 µM.
On the same count and under the same terms, with `COc1ccccc1C(CN(C)C)NC(=O)c1sccc1Nc1ccnc2[nH]ccc12` (centres unmarked) [Example 158, 3-(1H-Pyrrolo[2,3-b]pyridin-4-ylamino)-thiophene-2-carboxylic acid [2-dimethylamino-1-(2-methoxy-phenyl)-ethyl]-amide] the figure was 0.1 to 1 µM.
Still for that read-out and setting: with `O=C(NCCNCc1ccc(F)c(Cl)c1)c1sccc1Nc1ccnc2[nH]ccc12` [Example 63, 3-(1H-Pyrrolo[2,3-b]pyridin-4-ylamino)-thiophene-2-carboxylic acid [2-(3-chloro-4-fluoro-benzylamino)-ethyl]-amide] the figure was less than 0.1 µM; with `COc1cccc(NC(=O)c2sccc2Nc2ccnc3[nH]ccc23)c1` [Example 39, 3-(1H-Pyrrolo[2,3-b]pyridin-4-ylamino)-thiophene-2-carboxylic acid (3-methoxy-phenyl)-amide], 0.1 to 1 µM; with `CC(C)(C)OC(=O)N1CCCC(NC(=O)c2ccsc2Nc2ccnc3[nH]ccc23)C1` (centres unmarked) [Example 104, 3-{[2-(1H-Pyrrolo[2,3-b]pyridin-4-ylamino)-thiophene-3-carbonyl]-amino}-piperidine-1-carboxylic acid tert-butyl ester], 0.1 to 1 µM.
Still for that read-out and setting: with `O=C(NCCc1cccc(F)c1)c1sccc1Nc1ncnc2[nH]ccc12` [Example 175, 3-(7H-Pyrrolo[2,3-d]pyrimidin-4-ylamino)-thiophene-2-carboxylic acid [2-(3-fluorophenyl)-ethyl]-amide] the figure was less than 0.1 µM; with `O=C(NCCc1c[nH]cn1)c1sccc1Nc1ccnc2[nH]ccc12` [Example 15, 3-(1H-Pyrrolo[2,3-b]pyridin-4-ylamino)-thiophene-2-carboxylic acid [2-(1H-imidazol-4-yl)-ethyl]-amide], 0.1 to 1 µM.
With `O=C(NC1CCNC1)c1sccc1Nc1ccnc2[nH]ccc12` (centres unmarked) [Example 6, 3-(1H-Pyrrolo[2,3-b]pyridin-4-ylamino)-thiophene-2-carboxylic acid pyrrolidin-3-ylamide], the IC50 was less than 0.1 µM.
Same read-out and setting: then `COC(=O)C(CO)NC(=O)c1sccc1Nc1ccnc2[nH]ccc12` (centres unmarked) [Example 85, 3-Hydroxy-2-{[3-(1H-pyrrolo[2,3-b]pyridin-4-ylamino)-thiophene-2-carbonyl]-amino}-propionic acid methyl ester], with 0.1 to 1 µM; and `O=C(Nc1cccc(CNC(=O)c2sccc2Nc2ccnc3[nH]ccc23)c1)c1ccnc(N2CCOCC2)c1` [Example 164, 2-Morpholin-4-yl-N-[3-({[3-(1H-pyrrolo[2,3-b]pyridin-4-ylamino)-thiophene-2-carbonyl]-amino}-methyl)-phenyl]-isonicotinamide], with less than 0.1 µM.
The same measure, in the same setting: with `O=C(NCCc1cccs1)c1sccc1Nc1ccnc2[nH]ccc12` [Example 21, 3-(1H-Pyrrolo[2,3-b]pyridin-4-ylamino)-thiophene-2-carboxylic acid (2-thiophen-2-yl-ethyl)-amide] the figure was less than 0.1 µM.
Same read-out and setting: then `O=C(NCc1cn(Cc2ccccc2)nn1)c1sccc1Nc1ccnc2[nH]ccc12` [Example 101, 3-(1H-Pyrrolo[2,3-b]pyridin-4-ylamino)-thiophene-2-carboxylic acid (1-benzyl-1H-[1,2,3]triazol-4-ylmethyl)-amide], with 0.1 to 1 µM.
With `Cc1ccc(C(CN)NC(=O)c2ccsc2Nc2ccnc3[nH]ccc23)cc1` (centres unmarked) [Example 126, 2-(1H-Pyrrolo[2,3-b]pyridin-4-ylamino)-thiophene-3-carboxylic acid (2-amino-1-p-tolyl-ethyl)-amide], the IC50 was less than 0.1 µM.
Consider `CC(C)C[C@@H](CO)NC(=O)c1ccsc1Nc1ccnc2[nH]ccc12` [Example 117, 2-(1H-Pyrrolo[2,3-b]pyridin-4-ylamino)-thiophene-3-carboxylic acid ((S)-1-hydroxymethyl-3-methyl-butyl)-amide], for which the IC50 is less than 0.1 µM.
Still for that read-out and setting: with `CNCCNC(=O)c1sccc1Nc1ncnc2[nH]ccc12` [Example 185, 3-(7H-Pyrrolo[2,3-d]pyrimidin-4-ylamino)-thiophene-2-carboxylic acid (2-methylamino-ethyl)-amide] the figure was 0.1 to 1 µM; with `O=C(NCCc1ccc(Br)cc1)c1sccc1Nc1ccnc2[nH]ccc12` [Example 27, 3-(1H-Pyrrolo[2,3-b]pyridin-4-ylamino)-thiophene-2-carboxylic acid [2-(4-bromo-phenyl)-ethyl]-amide], less than 0.1 µM; with `O=C(NCCNS(=O)(=O)c1ccccc1)c1sccc1Nc1ccnc2[nH]ccc12` [Example 71, 3-(1H-Pyrrolo[2,3-b]pyridin-4-ylamino)-thiophene-2-carboxylic acid (2-benzenesulfonylamino-ethyl)-amide], 0.1 to 1 µM.
Take `O=C(NCCN(Cc1ccoc1)Cc1ccoc1)c1sccc1Nc1ccnc2[nH]ccc12` [Example 47, 3-(1H-Pyrrolo[2,3-b]pyridin-4-ylamino)-thiophene-2-carboxylic acid [2-(bis-furan-3-ylmethyl-amino)-ethyl]-amide]: the IC50 was less than 0.1 µM.
Regarding `NCC(NC(=O)c1sccc1Nc1ccnc2[nH]ccc12)c1ccccc1` (centres unmarked) [Example 77, 3-(1H-Pyrrolo[2,3-b]pyridin-4-ylamino)-thiophene-2-carboxylic acid (2-amino-1-phenyl-ethyl)-amide], the IC50 is less than 0.1 µM.
Same read-out and setting: with `O=C(N[C@H](CN1C(=O)c2ccccc2C1=O)c1ccccc1)c1sccc1Nc1ccnc2[nH]ccc12` [Example 135, (S)-2-(1H-Pyrrolo[2,3-b]pyridin-4-ylamino)-thiophene-3-carboxylic acid[2-(1,3-dioxo-1,3-dihydro-isoindol-2-yl)-1-phenyl-ethyl]-amide] the figure was less than 0.1 µM.
Still for that read-out and setting: with `O=C(N[C@@H](CO)c1ccccc1)c1sccc1Nc1ccnc2[nH]ccc12` [Example 43, R-[3-(1H-Pyrrolo[2,3-b]pyridin-4-ylamino)-thiophene-2-carboxylic acid (2-hydroxy-1-phenyl-ethyl)-amide]] the figure was 1 to 10 µM.
On to `O=C(NC(CO)C(=O)NCc1ccc(Cl)c(C(F)(F)F)c1)c1sccc1Nc1ccnc2[nH]ccc12` (centres unmarked) [Example 89, 3-(1H-Pyrrolo[2,3-b]pyridin-4-ylamino)-thiophene-2-carboxylic acid [1-(4-chloro-3-trifluoromethyl-benzylcarbamoyl)-2-hydroxy-ethyl]-amide], for which the IC50 lay in the range of 0.1 to 1 µM.
On to `NCC(NC(=O)c1sccc1Nc1ccnc2[nH]ccc12)c1ccc(C(F)(F)F)cc1` (centres unmarked) [Example 132, 3-(1H-Pyrrolo[2,3-b]pyridin-4-ylamino)-thiophene-2-carboxylic acid [2-amino-1-(4-trifluoromethyl-phenyl)-ethyl]-amide], for which the IC50 was less than 0.1 µM.
The same measure, in the same setting: then `O=C(NCCC1=CCCCC1)c1sccc1Nc1ccnc2[nH]ccc12` [Example 13, 3-(1H-Pyrrolo[2,3-b]pyridin-4-ylamino)-thiophene-2-carboxylic acid (2-cyclohex-1-enyl-ethyl)-amide], with less than 0.1 µM; and `O=C(NCCNCc1ccncc1)c1sccc1Nc1ccnc2[nH]ccc12` [Example 74, 3-(1H-Pyrrolo[2,3-b]pyridin-4-ylamino)-thiophene-2-carboxylic acid {2-[(pyridin-4-ylmethyl)-amino]-ethyl}-amide], with 0.1 to 1 µM.
On the same count and under the same terms, with `O=C(NCCNCc1ccoc1)c1sccc1Nc1ccnc2[nH]ccc12` [Example 53, 3-(1H-Pyrrolo[2,3-b]pyridin-4-ylamino)-thiophene-2-carboxylic acid {2-[(furan-3-ylmethyl)-amino]-ethyl}-amide] the figure was less than 0.1 µM.
